Measurements published in patent US20030225081A1, “Pyridazinones and triazinones and medicinal use thereof” (priority 2000, published 2003).

System: AMPA receptor
Experiment: Suppressing action to calcium influx into nerve cells induced by AMPA
Type: cell-based
Conditions: Fura2-AM, stimulation with 2 μM AMPA, primary culture of rat embryo cerebral cortex nerve cells, 1 μM MK-801
Excerpt: Suppressing Action to Calcium Influx into Nerve Cells Induced by AMPA
The suppressing action of the compounds of the present invention to calcium influx into nerve cells induced by AMPA was investigated using the primary culture system of nerve cells of cerebral cortex of embryo of rat.
Cerebral cortex was cut out from the brain of rat of gestational 18 days and treated with trypsin and DNase to disperse the cells. The cells were flown by MEM containing 10% of serum, sown in a culture bottle and astrocytes were proliferated. The astrocytes were re-dispersed by trypsin and sown in a 96-well plate. After incubation for one week, it was confirmed that the astrocytes covered all over the bottom and then the nerve cells of cerebral cortex which was dispersed by the above method were sown thereupon. After incubation for 24 hours, the medium was changed, the incubation was carried out for one week and, after that, the medium was changed to that containing 1 μM of MK-801. Nerve cells which were incubated for not shorter than 8 to 10 days were used.
Calcium influx into the cells was measured using Fura2-AM which was a calcium-sensitive fluorescent dye. It was treated in a medium containing Fura2-AM for 1 hour, incorporated into the cells, exchanged to a Tyrode solution containing 1 μM MK-801 and stimulation was carried out using 2 μM AMPA. Change in the amount of calcium flown into the cells were measured as the change in the fluorescent intensity at the exciting wave length of 340/380 nm. […] As the control compound, GYKI52466 (Le Peillet, et al., Brain Res., 571, 115, 1992) was used.

Row | SMILES | IC50
1 | N#Cc1ccccc1N1N=C2c3cc(F)ccc3OCC2C(c2ccccc2)C1=O (stereo not shown) [Example 48, 2-(2-Cyanophenyl)-9-fluoro-4-phenyl-2,3,4,4a-tetrahydro-5H-(1)benzopyrano[4,3-c]pyridazin-3-one] | 100 nM
2 | N#Cc1ccccc1N1N=C2c3ccccc3OCC2C(c2cccnc2)C1=O (stereo not shown) [Example 49, 2-(2-Cyanophenyl)-4-(3-pyridyl)-2,3,4,4a-tetrahydro-5H-(1) benzopyrano[4,3-c]pyridazin-3-one] | 70 nM
3 | O=C1C(c2cccnc2)C2COc3ccccc3C2=NN1c1ccccc1Br (stereo not shown) [Example 50, 2-(2-Bromophenyl)-4-(3-pyridyl)-2,3,4,4a-tetrahydro-5H-(1)benzopyrano[4,3-c]pyridazin-3-one] | 100 nM
4 | O=c1c(-c2ccccc2O)cc(-c2ccccn2)nn1-c1ccccc1Br [Example 51, 2-(2-Bromophenyl)-4-(2-hydroxyphenyl)-6-(2-pyridyl)-3 (2H)-pyridazinone] | 800 nM
5 | COc1cccc(-c2cc(-c3ccccn3)nn(-c3ccccc3Br)c2=O)c1 [Example 52, 2-(2-Bromophenyl)-4-(3-methoxyphenyl)-6-(2-pyridyl)-3 (2H)-pyridazinone] | 200 nM
6 | N#Cc1ccccc1-n1nc2c(c(-c3ccccc3)c1=O)C(O)Oc1ccc(F)cc1-2 (stereo not shown) [Example 53, 2-(2-Cyanophenyl)-9-fluoro-5-hydroxy-4-phenyl-2,3-dihydro-5H-(1)benzopyrano[4,3-c]pyridazin-3-one] | 500 nM
7 | N#Cc1ccccc1-n1nc2c(c(-c3ccccc3)c1=O)COc1ccc(F)cc1-2 [Example 54, 2-(2-Cyanophenyl)-9-fluoro-4-phenyl-2,3-dihydro-5H-(1)benzopyrano[4,3-c]pyridazin-3-one] | 100 nM
8 | O=c1c(-c2ccccc2OS(=O)(=O)C(F)(F)F)cc(-c2ccccn2)nn1-c1ccccc1 [Example 55, 2-Phenyl-6-(2-pyridyl)-4-(2-trifluoromethylsulfonyloxyphenyl)-3 (2H)-pyridazinone] | 800 nM
9 | O=c1c(-c2ccccc2)cc(-c2ccccn2)nn1-c1ccccc1Br [Example 56, 2-(2-Bromophenyl)-4-phenyl-6-(2-pyridyl)-3 (2H)-pyridazinone] | 200 nM
10 | O=c1c(-c2cccnc2)c2c(nn1-c1ccccc1Br)-c1ccccc1OC2 [Example 57, 2-(2-Bromophenyl)-4-(3-pyridyl)-2,3-dihydro-5H-(1)benzopyrano[4,3-c]pyridazine-3-one] | 200 nM
11 | O=c1c(-c2cccnc2)c2c(nn1-c1ccccc1I)-c1ccccc1OC2 [Example 58, 2-(2-Iodophenyl)-4-(3-pyridyl)-2,3-dihydro-5H-(1)benzopyrano[4,3-c]pyridazin-3-one] | 400 nM
12 | O=c1c(-c2ccccc2Br)cc(-c2ccccn2)nn1-c1ccccc1 [Example 60, 4-(2-Bromophenyl)-2-phenyl-6-(2-pyridyl)-3 (2H)-pyridazinone] | 200 nM
13 | O=c1c(-c2cccnc2)cc(-c2ccccn2)nn1-c1ccccc1Br [Example 61, 2-(2-Bromophenyl)-4-(3-pyridyl)-6-(2-pyridyl)-3 (2H)-pyridazinone] | 300 nM
14 | O=C(NCCN1CCOCC1)c1cc(-c2ccccc2)nn(-c2ccccc2Cl)c1=O [Example 62, 2-(2-Chlorophenyl)-4-(4-morpholinoethylaminocarbonyl)-6-phenyl-3 (2H)-pyridazinone] | 4000 nM
15 | O=c1c(-c2cccnc2)cc(-c2ccccn2)nn1-c1ccccc1[N+](=O)[O-] [Example 63, 2-(2-Nitrophenyl)-4-(3-pyridyl)-6-(2-pyridyl)-3 (2H)-pyridazinone] | 300 nM
16 | Cc1cccc(-n2nc(-c3ccccn3)cc(-c3cccnc3)c2=O)c1 [Example 64, 2-(3-Tolyl)-4-(3-pyridyl)-6-(2-pyridyl)-3 (2H)-pyridazinone] | 700 nM
17 | N#Cc1ccccc1-n1nc(-c2ncccn2)cc(-c2ccccc2)c1=O [Example 70, 2-(2-Cyanophenyl)-4-phenyl-6-(2-pyrimidinyl)-3 (2H)-pyridazinone] | 800 nM
18 | O=c1c(-c2cccnc2)cc(-c2ccccn2)nn1-c1ccsc1 [Example 73, 2-(Thiophen-3-yl)-4-(3-pyridyl)-6-(2-pyridyl)-3 (2H)-pyridazinone] | 1100 nM
19 | O=c1c(-c2ccccc2)cc(-c2ccccn2)nn1-c1cccnc1 [Example 74, 2-(3-Pyridyl)-4-phenyl-6-(2-pyridyl)-3 (2H)-pyridazinone] | 900 nM
20 | O=c1c(-c2ccccc2)cc(-c2ncccn2)nn1-c1cccnc1 [Example 75, 2-(3-Pyridyl)-4-phenyl-6-(2-pyrimidinyl)-3 (2H)-pyridazinone] | 700 nM

Row | SMILES | IC50
21 | COc1ccccc1N1N=C(c2ccccn2)CC(c2cccnc2)C1=O (stereo not shown) [Example 76, 2-(2-Methoxyphenyl)-4-(3-pyridyl)-6-(2-pyridyl)-4,5-dihydro-3 (2H)-pyridazinone] | 6200 nM
22 | O=c1c(-c2ccccc2)cc(-c2ccccn2)nn1-c1ccc[n+]([O-])c1 [Example 79, 2-(3-Pyridin-1-oxide)-4-phenyl-6-(2-pyridyl)-3 (2H)-pyridazinone] | 7200 nM
23 | N#Cc1ccc(-n2nc(-c3ccccn3)cc(-c3ccccc3)c2=O)cn1 [Example 80A, 2-(2-Cyanopyridin-5-yl)-4-phenyl-6-(2-pyridyl)-3 (2H)-pyridazinone] | 7100 nM
24 | N#Cc1ncccc1-n1nc(-c2ccccn2)cc(-c2ccccc2)c1=O [Example 80B, 2-(2-Cyanopyridin-3-yl)-4-phenyl-6-(2-pyridyl)-3 (2H)-pyridazinone] | 200 nM
25 | N#Cc1ncccc1-n1nc(-c2ncccn2)cc(-c2ccccc2)c1=O [Example 81B, 2-(2-Cyanopyridin-3-yl)-4-phenyl-6-(2-pyrimidinyl)-3 (2H)-pyridazinone] | 700 nM
26 | N#Cc1ccccc1-n1nc(-c2cnccn2)cc(-c2ccccc2)c1=O [Example 82, 2-(2-Cyanophenyl)-4-phenyl-6-(2-pyrazinyl)-3 (2H)-pyridazinone] | 1200 nM
27 | N#Cc1ccccc1-n1nc(-c2nccs2)cc(-c2ccccc2)c1=O [Example 83, 2-(2-Cyanophenyl)-4-phenyl-6-(thiazol-2-yl)-3 (2H)-pyridazinone] | 600 nM
28 | COc1ccccc1N1CC(c2ccccn2)=NN(c2ccccc2Br)C1=O [Example 85, 2-(2-Bromophenyl)-4-(2-methoxyphenyl)-6-(2-pyridyl)-4,5-dihydro-1,2,4-triazin-3 (2H)-one] | 200 nM
29 | O=C1N(c2ccccc2O)CC(c2ccccn2)=NN1c1ccccc1Br [Example 86, 2-(2-Bromophenyl)-4-(2-hydroxyphenyl)-6-(2-pyridyl)-4,5-dihydro-1,2,4-triazin-3 (2H)-one] | 100 nM
30 | COc1ccccc1N1CC(c2ccccn2)=NN(c2ccccc2C#N)C1=O [Example 87, 2-(2-Cyanophenyl)-4-(2-methoxyphenyl)-6-(2-pyridyl)-4,5-dihydro-1,2,4-triazin-3 (2H)-one] | 50 nM
31 | COc1ccccc1C1=NN(c2ccccc2Br)C(=O)N(c2ccccc2)C1 [Example 89, 2-(2-Bromophenyl)-6-(2-methoxyphenyl)-4-phenyl-4,5-dihydro-1,2,4-triazin-3 (2H)-one] | 5000 nM
32 | O=C1N(c2ccccc2)CC(c2ccccc2O)=NN1c1ccccc1Br [Example 90, 2-(2-Bromophenyl)-6-(2-hydroxyphenyl)-4-phenyl-4,5-dihydro-1,2,4-triazin-3 (2H)-one] | 900 nM
33 | CN(C)CCOc1ccccc1C1=NN(c2ccccc2Br)C(=O)N(c2ccccc2)C1 [Example 91, 2-(2-Bromophenyl)-6-(2-dimethylaminoethoxyphenyl)-4-phenyl-4,5-dihydro-1,2,4-triazin-3 (2H)-one] | 300 nM
34 | COc1ccccc1C1=NN(c2ccccc2Br)C(=O)N(c2ccccn2)C1 [Example 92, 2-(2-Bromophenyl)-6-(2-methoxyphenyl)-4-(2-pyridyl)-4,5-dihydro-1,2,4-triazin-3 (2H)-one] | 100 nM
35 | N#Cc1ccccc1N1N=C(c2ccccc2O)CN(c2ccccc2)C1=O [Example 93, 2-(2-Cyanophenyl)-6-(2-hydroxyphenyl)-4-phenyl-4,5-dihydro-1,2,4-triazin-3 (2H)-one] | 30 nM
36 | O=C1N(c2cc(O)ccc2O)CC(c2ccccc2O)=NN1c1ccccc1Br [Example 94, 2-(2-Bromophenyl)-4-(2,5-dihydroxyphenyl)-6-(2-hydroxyphenyl)-4,5-dihydro-1,2,4-triazin-3 (2H)-one] | 900 nM
37 | O=C1N(c2cc(O)ccc2O)CC(c2ccccc2O)=NN1c1ccccc1 [Example 95, 4-(2,5-Dihydroxyphenyl)-6-(2-hydroxyphenyl)-2-phenyl-4,5-dihydro-1,2,4-triazin-3 (2H)-one] | 50 nM
38 | N#Cc1ccccc1N1N=C(c2ccccn2)CN(c2ccccc2O)C1=O [Example 96, 2-(2-Cyanophenyl)-4-(2-hydroxyphenyl)-6-(2-pyridyl)-4,5-dihydro-1,2,4-triazin-3 (2H)-one] | 600 nM
39 | COc1ccccc1C1=NN(c2ccccc2)C(=O)N(c2ccccc2C#N)C1 [Example 98, 4-(2-Cyanophenyl)-6-(2-methoxyphenyl)-2-phenyl-4,5-dihydro-1,2,4-triazin-3 (2H)-one] | 400 nM
40 | COc1ccccc1C1=NN(c2ccccc2C#N)C(=O)N(c2ccccn2)C1 [Example 99, 2-(2-Cyanophenyl)-6-(2-methoxyphenyl)-4-(2-pyridyl)-4,5-dihydro-1,2,4-triazin-3 (2H)-one] | 70 nM
